Measurements published in paper PMC8844856, “Structural basis of cyclic oligoadenylate binding to the transcription factor Csa3 outlines cross talk between type III and type I CRISPR systems” (The Journal of Biological Chemistry, 2022).
“Also recorded” adds a separate entry of the source.

Legend:
[1] = biological target: T1, His6-Csa3Sso (WT) (Saccharolobus solfataricus, UniProt Q97Y88); assay: Microscale thermophoresis (MST) binding of cOA ligands to wildtype Csa3Sso
T1 construct: made in house; host or cells: E. coli BL21(DE3)-pLysS
T1 sequence (Q97Y88 1-237): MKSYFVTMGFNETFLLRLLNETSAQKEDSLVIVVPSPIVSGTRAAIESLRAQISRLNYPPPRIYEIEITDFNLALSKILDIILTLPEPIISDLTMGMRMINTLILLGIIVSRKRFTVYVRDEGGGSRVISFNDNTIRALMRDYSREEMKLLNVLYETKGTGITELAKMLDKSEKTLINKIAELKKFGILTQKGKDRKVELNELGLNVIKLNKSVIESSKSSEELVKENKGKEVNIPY
Procedure: (§1) The ligand-binding specificity of Csa3Sso (WT) and the role of Csa3Sso residues in ligand binding were determined by microscale Thermophoresis (MST). Wildtype or mutant His6-Csa3Sso (200 nM) was fluorescently labeled in 2× binding buffer (10 mM Na/K phosphate, pH 5.8, 10 mM MgCl2, 25 mM NaCl, and 0.05% Tween 20) using 100 nM RED-Tris NTA His-Tag labeling dye (Nanotemper Technologies, Inc) and incubated in the dark at room temperature for 30 min. Two millimolar stocks of synthetic ligands including cA3, cA4, and cA6 (Biolog Life Science Institute) or linear ribonucleotide 5′-rCrArArArA-3′ (Bio-Synthesis Inc) were serially diluted in a 1:1 ratio with nuclease-free water. The labeled proteins were then mixed with ligands in a 1:1 ratio. Only cA4 was used in the MST experiments with the Csa3Sso mutants (2 mM stocks of cA4 were used for F10A, F14A, G96A, and R98A mutants, and 20 μM stocks were used for E122A and E122Q mutants). The mixtures of proteins and ligands were incubated in the dark at room temperature for 30 min. The precipitated material was removed by centrifugation at 6000 rpm for 5 min. The supernatants were then loaded into Monolith NT.115 Series Premium capillaries in triplicate, and the thermophoresis was detected with 40% excitation power and 40% IR-laser power for an on-time of 20 s at 25 °C.
(§2) The binding affinities of oligonucleotides and PCas4a to Csa3Sso (WT and mutants) were analyzed according to the law of mass action in a standard fitting mode of MO.Affinity analysis software (version 2.3).

[2] = biological target: Csa3bSis; design: method as in PMID 32983033; details: surface plasmon resonance; cited from earlier work
[3] = tested on: Csa3bSis binding to the Pcsa1 promoter; design: method as in PMID 32983033; details: in the presence of the cA4 analog in vitro; cited from earlier work
[4] = biological target: T2, Csa3Sso F10A mutant (Saccharolobus solfataricus, UniProt Q97Y88, F10A); assay: MST binding of cA4 to Csa3Sso F10A mutant; details: Fig. 4E
T2 construct: made in house; host or cells: E. coli BL21(DE3)-pLysS (pET21b)
T2 sequence (Q97Y88 whole entry F10A): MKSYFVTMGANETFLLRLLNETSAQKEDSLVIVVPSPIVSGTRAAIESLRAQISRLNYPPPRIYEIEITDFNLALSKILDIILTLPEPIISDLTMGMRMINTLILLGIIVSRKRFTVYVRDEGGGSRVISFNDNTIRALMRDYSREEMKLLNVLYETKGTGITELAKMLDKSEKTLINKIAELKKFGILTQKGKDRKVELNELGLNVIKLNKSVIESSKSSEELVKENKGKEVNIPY
Procedure: as §1, with “The mixtures of proteins and ligands were incubated in the dark at room temperature for 30 min. The precipitated material was removed by centrifugation at 6000 rpm for 5 min.” left out
as §2

[5] = biological target: T3, Csa3Sso F14A mutant (Saccharolobus solfataricus, UniProt Q97Y88, F14A); assay: MST binding of cA4 to Csa3Sso F14A mutant; details: Fig. 4E
T3 construct: made in house; host or cells: E. coli BL21(DE3)-pLysS (pET21b)
T3 sequence (Q97Y88 whole entry F14A): as the sequence (Q97Y88 whole entry F10A) above, with A10F, F14A counted along it
Procedure: as §1, with “The mixtures of proteins and ligands were incubated in the dark at room temperature for 30 min. The precipitated material was removed by centrifugation at 6000 rpm for 5 min.” left out
as §2

[6] = biological target: T4, Csa3Sso G96A mutant (Saccharolobus solfataricus, UniProt Q97Y88, G96A); assay: MST binding of cA4 to Csa3Sso G96A mutant; details: Fig. 4E
T4 construct: made in house; host or cells: E. coli BL21(DE3)-pLysS (pET21b)
T4 sequence (Q97Y88 whole entry G96A): as the sequence (Q97Y88 whole entry F10A) above, with A10F, G96A counted along it
Procedure: as §1, with “The mixtures of proteins and ligands were incubated in the dark at room temperature for 30 min. The precipitated material was removed by centrifugation at 6000 rpm for 5 min.” left out
as §2

[7] = biological target: T5, Csa3Sso R98A mutant (Saccharolobus solfataricus, UniProt Q97Y88, R98A); assay: MST binding of cA4 to Csa3Sso R98A mutant; details: Fig. 4E
T5 construct: made in house; host or cells: E. coli BL21(DE3)-pLysS (pBB75)
T5 sequence (Q97Y88 whole entry R98A): as the sequence (Q97Y88 whole entry F10A) above, with A10F, R98A counted along it
Procedure: as §1, with “The mixtures of proteins and ligands were incubated in the dark at room temperature for 30 min. The precipitated material was removed by centrifugation at 6000 rpm for 5 min.” left out
as §2

[8] = biological target: T6, Csa3Sso (Saccharolobus solfataricus, UniProt Q97Y88); assay: Ring nuclease activity assay (C18 HPLC), wildtype Csa3Sso; type: biochemical; details: 3 h
T6 construct: made in house; host or cells: E. coli BL21(DE3)-pLysS
T6 sequence (Q97Y88 1-237): T1 sequence (Q97Y88 1-237)
Procedure: (§3) […]. The reaction mixtures were deproteinized by ultrafiltration with an Amicon Ultra 3 kDa cutoff centrifugal filter (Millipore). […]. For both conditions, the products and controls were collected and analyzed with High Performance Liquid Chromatography system (UltiMate 3000, Thermo Scientific) equipped with the C18 column (4.6 × 100 mm, […], Thermo Scientific) and C18 column, (15 cm × 4.6 mm, […], Supelco), for the first and second conditions, respectively.

[9] = biological target: T7, Csa3Sso-E122A (Saccharolobus solfataricus, UniProt Q97Y88, E122A); assay: Ring nuclease activity assay (C18 HPLC), Csa3Sso-E122A; type: biochemical; details: 5 μM E122A mutant, 500 μM cA4, 60 °C, 3 h, Fig. S5C
T7 construct: made in house; host or cells: E. coli BL21(DE3)-pLysS (pET21b)
T7 sequence (Q97Y88 whole entry E122A): as the sequence (Q97Y88 whole entry F10A) above, with A10F, E122A counted along it
Procedure: as §3

[10] = biological target: T8, Csa3Sso-E122Q (Saccharolobus solfataricus, UniProt Q97Y88, E122Q); assay: Ring nuclease activity assay (C18 HPLC), Csa3Sso-E122Q; type: biochemical; details: 5 μM E122Q mutant, 500 μM cA4, 60 °C, 3 h, Fig. S5C
T8 construct: made in house; host or cells: E. coli BL21(DE3)-pLysS (pET21b)
T8 sequence (Q97Y88 whole entry E122Q): as the sequence (Q97Y88 whole entry F10A) above, with A10F, E122Q counted along it
Procedure: as §3

[11] = biological target: T1, His6-Csa3Sso (WT); assay: MST binding of PCas4a promoter DNA to Csa3Sso with or without cOAs; details: 50-fold excess of cOA (25 μM)
Procedure: The MST experiment and data analysis for ligand-induced changes in Csa3Sso binding affinity with PCas4a was performed as mentioned above except for the following: 1 μM of His6-Csa3Sso (WT) was fluorescently labeled in 2× binding buffer with 40 nM RED-Tris NTA His-Tag labeling dye in the absence or presence of cA4 or cA6. The labeling mixtures were incubated in the dark at room temperature for 30 min. A 50 μM stock of PCas4a was serially diluted in 1:1 ratios with nuclease-free water. The labeled proteins ± ligands were then mixed with diluted PCas4a in a 1:1 ratio and incubated in the dark at room temperature for 30 min. The supernatants obtained after removal of precipitated material were then loaded into Monolith NT.115 Series Premium capillaries in triplicate, and the thermophoresis was detected with 100% excitation power and 60% IR-laser power for an on-time of 20 s at 25 °C.
as §2

[12] = biological target: T9, Csa3Sso–PCas4a complex precipitates (Saccharolobus solfataricus, UniProt Q97Y88); assay: Visual precipitation of Csa3Sso–PCas4a complexes in tubes, wildtype; details: 50 μM Csa3Sso WT, 10 μM PCas4a, 500 μM cA4, 30 min, 20 °C
T9 construct: made in house; host or cells: E. coli BL21(DE3)-pLysS
T9 sequence (Q97Y88 1-237): T1 sequence (Q97Y88 1-237)
From the text: (§4) […]. The DNA fragment docked onto protomer A in the cA4-bound Csa3Sso dimer sterically clashed with a region in the CARF domain from protomer B in this dimer (encircled by a red dotted circle). […] To obtain these models, wHTH domains of B. subtilis OhrR (PDB code: 1Z9C ([71]), RMSD: 1.7 Å) were individually superimposed onto wHTH domains of the Csa3Sso dimer and OhrR was omitted from the view for clarity. A single and straight model of B-form DNA with two copies of the palindromes could not be modeled with the apo Csa3Sso dimer owing to a slight misorientation (not shown) between Csa3Sso wHTH domains (possibly requiring a bend in the DNA). B, precipitation of Csa3Sso in the presence of PCas4a DNA and its solubilization by cA4 binding to the Csa3Sso CARF domain. […]. Cy5-labeled PCas4a, 50 nM, was added to different Csa3Sso concentrations ranging from 500 nM to 25 μM in the presence or absence of cA4 added in a 50:1 ratio of cA4:Csa3Sso. […].

[13] = biological target: T10, Csa3Sso-R98A mutant with PCas4a DNA (Saccharolobus solfataricus, UniProt Q97Y88, R98A); assay: Visual precipitation of Csa3Sso-R98A with PCas4a DNA in tubes; details: 50 μM Csa3Sso R98A, 10 μM PCas4a, 500 μM cA4, 30 min, 20 °C
T10 construct: made in house; host or cells: E. coli BL21(DE3)-pLysS (pBB75)
T10 sequence (Q97Y88 whole entry R98A): as the sequence (Q97Y88 whole entry F10A) above, with A10F, R98A counted along it
From the text: as §4

[14] = biological target: Csa3Sso–PCas4a complex (Saccharolobus solfataricus, UniProt Q97Y88)
Procedure: Top and bottom DNA oligonucleotide strands used for EMSA were purchased from Sigma-Aldrich (Table S2). The oligonucleotide strands were annealed by mixing them in 1:1 molar ratio followed by heating at 98 °C for the unlabeled, or 70 °C for the Cy5-labeled, DNA fragments for 15 min. Slow cooling to room temperature was used to anneal the fragments. Unlabeled probe-containing samples used for Fig. S8C were electrophoresed using a 2% (w/v) agarose Tris-Borate-EDTA (TBE) gel at 100 V for 30 min at room temperature. Probes were stained with ethidium bromide and visualized using Gel Doc XR+ Molecular Imager (Bio-Rad). […] The Cy5-labeled probes were electrophoresed in a 5% acrylamide TBE gel at 100 V for 1 h at 4 °C. DNA bands were visualized using FluorChem R gel imager (Protein Simple, Inc).

[15] = biological target: Treponema succinifaciens Card1; design: method as in PMID 33461211; details: cited from earlier work

Row | Compound | specific binding to His6-Csa3Sso ([1]; MST) | Kd [2] [µM] | fold increase in Csa3bSis binding affinity to the Pcsa1 promoter [3] [fold] | fold stronger binding of His6-Csa3Sso to cA4 than Csa3bSis to the linear cA4 analog ([1]; MST KD vs SPR KD of ref 57) [fold] | cA4 binding [4] | cA4 binding [5] | cA4 binding [6] | cA4 binding [7] | cA4 hydrolysis (ring nuclease activity) ([8]; 5 μM Csa3Sso, 500 μM cA4, buffer G, 60 °C, Fig. 6) | cA4 hydrolysis (ring nuclease activity) ([8]; 50 µM Csa3Sso, 250 µM cA4, buffer G or binding buffer, 55 °C, Fig. S5 A, B) | cA4 hydrolysis (ring nuclease activity) [9] | cA4 hydrolysis (ring nuclease activity) [10] | effect of excess cOA on PCas4a binding affinity of Csa3Sso [11] | effect on formation of Csa3Sso–PCas4a complex precipitates [12] | rescue of Csa3Sso-R98A from precipitating with DNA [13] | effect on levels of soluble Csa3Sso–DNA complex (shifted band) [14] | Kd [15] [µM]
1 | 5′-rCrArArArA-3′ [5′CAAAA3′] | only cA4 exhibited a specific low micromolar binding | 46.1 ± 8.14 | ~10 | – | – | – | – | – | – | – | – | – | – | – | – | – | –
2 | Nc1ncnc2c1ncn2[C@@H]1O[C@@H]2COP(=O)(O)O[C@H]3[C@@H](O)[C@H](n4cnc5c(N)ncnc54)O[C@@H]3COP(=O)(O)O[C@H]3[C@@H](O)[C@H](n4cnc5c(N)ncnc54)O[C@@H]3COP(=O)(O)O[C@H]3[C@@H](O)[C@H](n4cnc5c(N)ncnc54)O[C@@H]3COP(=O)(O)O[C@H]2[C@H]1O [cA4, cyclic tetra-adenylate] | – | – | – | 8 | complete loss of cA4 binding | complete loss of cA4 binding | completely lost the ability to bind cA4 | completely lost cA4 binding | no sign of cA4 hydrolysis products; also recorded: No changes in the time-dependent stability of cA4 | No changes | did not exhibit any gain of ring nuclease activity; also recorded: no ring nuclease activity was observed | did not exhibit any gain of ring nuclease activity; also recorded: no ring nuclease activity was observed | no significant effect; also recorded: did not significantly change | prevented their formation | could not rescue | no effect | 0.015
